The text below walks through data of US20050050594A1, “Tryptophan synthase as a site of herbicide action” (priority 1999, published 2005).

The target in one assay is TSα subunit. The following applies: TSα subunit reaction; cited from earlier work.
Assay [1] addresses T1, Salmonella typhimurium tryptophan synthase holoenzyme (α2β2), TSα reaction (Salmonella typhimurium, UniProt P00929).
T1 construct: made in house; host or cells: E. coli strain CB149pSTB7
The assay is described as follows: Inhibition of tryptophan synthase by the TSα reaction, microtiter kinetic coupled enzyme assay. In kind it is biochemical. The source says:
Inhibitors of TS were identified by their ability to inhibit the production of glyceraldehyde-3-P by the TSα reaction of the Salmonella typhimurium holoenzyme (α2β2) in the presence of a limiting amount of indole-3-glycerolphosphate and an excess of serine
The assay was developed as a new microtiter plate kinetic enzyme assay based on the combined methods of Creighton (EurJBch 13:1-10, 1970) and Creighton and Yanofsky (JBC 241:980, 1966) with modifications. The rate of glyceraldehyde production was measured as the linear […] (spectrophotometric absorbance at 340 nm) in the presence of glyceraldehyde-3-phosphate dehydrogenase in a coupled enzyme assay.
The assay solution contained a test inhibitor compound, 50 mM Tris-Cl (pH 7.8), 6 mM sodium arsenate, 5 μg/ml pyridoxal phosphate, 0.5 mM DTT, 0.18M NaCl, 60 mM serine, 1.6 mM NAD+, 8 e.u./ml yeast glyceraldehyde-3-phosphate dehydrogenase (Sigma, Catalog #G2647; Kirschner et al., Eur J Bch, 1975, 60:513 and approximately 1.5 e.u. Salmonella TS. 100 μM IGP was added to start the reaction, which was run at 37° C. and using 300 μl per assay in a microtiter plate.
The substrate IGP was used at 1.5 to 2 times its Km concentration to enhance the likelihood of identifying weak inhibitors, binding at the substrate binding site. This approach to identifying enzyme inhibitors was novel, since an excess of all substrates, (at least 5-times the Km value of each), is conventionally used in the measurement of enzyme activity.
Potential inhibitors were evaluated by adding 100 μM inhibitor (equimolar to substrate IGP):or less, in a 1:1 dilution series down from 100 μM, until the inhibition measured was less than 15%. Reaction rates at Vmax were compared in the presence and absence of inhibitors.
In addition, some weaker inhibitors were identified following preincubation of the inhibitor with the TS assay mix for 24 hrs prior to the addition of IGP. The identifying weaker inhibitors is to aid in a quantitative structure activity relationship (QSAR) evaluation, or to identify new herbicidal inhibitor leads. The previously known inhibitor IPP was used as a standard in all tests, where the I50 for IPP was 1-2 uM.

Another assay concerns the target T2, Arabidopsis TS enzyme (Arabidopsis thaliana, UniProt Q42529).
T2 construct: GST (N, cleaved yes); made in house; host or cells: E. coli DH5α (pGEX-2T constructs)
T2 sequence (Q42529 with tags, fused parts or gaps): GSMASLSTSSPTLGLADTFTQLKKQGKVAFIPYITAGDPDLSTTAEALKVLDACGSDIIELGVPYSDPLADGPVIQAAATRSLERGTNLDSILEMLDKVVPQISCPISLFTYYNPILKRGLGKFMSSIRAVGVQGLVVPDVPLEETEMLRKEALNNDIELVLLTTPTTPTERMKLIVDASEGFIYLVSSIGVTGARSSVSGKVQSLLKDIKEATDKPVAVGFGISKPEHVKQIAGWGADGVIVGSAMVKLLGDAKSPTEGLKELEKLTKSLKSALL
T2 sequence (P14671 with tags, fused parts or gaps partner): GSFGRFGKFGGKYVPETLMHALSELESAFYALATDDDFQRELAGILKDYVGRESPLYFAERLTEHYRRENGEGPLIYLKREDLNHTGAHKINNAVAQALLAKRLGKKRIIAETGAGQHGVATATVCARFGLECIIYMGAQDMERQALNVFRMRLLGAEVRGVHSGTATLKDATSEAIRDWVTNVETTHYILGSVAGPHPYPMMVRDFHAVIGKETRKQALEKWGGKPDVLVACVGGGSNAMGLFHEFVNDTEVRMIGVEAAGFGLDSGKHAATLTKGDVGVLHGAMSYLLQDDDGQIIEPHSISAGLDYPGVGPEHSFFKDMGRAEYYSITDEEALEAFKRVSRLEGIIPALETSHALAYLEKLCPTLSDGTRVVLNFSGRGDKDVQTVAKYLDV
The assay is described as follows: TSα assay with recombinant plant TSα and TSβ expressed in E. coli. It counts as biochemical. The following applies: inhibitor 82 uM; pAC 758 (1.5 ug) + pAC 755 (3 ug). The procedure: The plant TS proteins were expressed as fusion proteins with glutathione transferase (GST) to facilitate purification. After purification, the GST protein was cleaved off with thrombin as described above before the plant TS assays were performed. After thrombin cleavage, both TSα and TSβ-subunit proteins retained a Gly-Ser residue on the N-terminal of the protein in addition to the TS sequence. […]
The TSα enzyme assay was conducted as described in Example 3 for Salmonella TSα.
Specifically, phenylthiophosphonic acid compounds were used. The TSα assay conditions were as described for Salmonella TSα in Example 3 except that recombinant plant proteins were used instead of the Salmonella enzyme.

Assay [2] relates to a variety of dicotyledonous and monocotyledonous plants. Description: Postemergence greenhouse herbicidal test. In kind it is in vivo. Particulars: post emergence greenhouse test, 4 kg/ha. The procedure:
The herbicidal activity of the compounds was tested as described in the U.S. Pat. No. 5,635,449. […] In the tests, seedling plants are grown in jiffy flats for about two weeks. The test compounds are dispersed in 50/50 acetone/water mixtures containing 0.5% TWEEN®20, a polyoxyethylene sorbitan monolaurate surfactant of Atlas Chemical Industries, in sufficient quantities to provide the equivalent of about 1.0 kg to 8.0 kg per hectare of test compound when applied to the plants through a spray nozzle operating at 40 psi for a predetermined time. After spraying, the plants are placed on greenhouse benches and are cared for in the usual manner, commensurate with conventional greenhouse practices. From four to five weeks after treatment, the seedling plants are examined and rate according to the rating system set forth below.

The test system of another assay is TSβ (Spinacea enzyme). The assay is described as follows: TSβ assay with partially purified spinach enzyme. The arrangement: key: the increase in the number of “+” corresponds to the increase of inhibition; +++++: the increase in the number of “+” corresponds to the increase of inhibition; +++++++: the increase in the number of “+” corresponds to the increase of inhibition. Particulars: determined qualitatively. It counts as biochemical, Spinacea oleracea. The procedure: The assay was conducted in microfuge tubes by the TSβ reaction (indole+L-serine→L-tryptophan+H2O). 100 μL of extract was mixed with 150 μL of 0.4 mM indole, 80 mM serine, 0.03 mM PLP, 0.1 M Tris-Cl buffer pH 7.8, containing 7.5 μL of saturated NaCl. The mixture was incubated at 21° C. for increasing time intervals, from 10 min to several hours. The reaction was terminated by adding 25 μL 1 N NaOH, then 1 mL toluene with mixing, and then centifuging in a microfuge 2 min at 10,000×G to partition remaining indole into the toluene phase and away from the enzyme. Remaining indole was subsequently partitioned into the indole reagent phase and reacted with dimethylaminobenzaldehyde: 500 μL of the toluene layer from the microfuge tubes was mixed with 1 ml of the indole reagent in another tube and allowed to separate for 20 min, then the lower layer was carefully pipetted into a cuvette and its absorbance measured at 540 nm. This part of the assay was conducted as known in the art.
A unique microtiter plate method was also developed to streamline the partitioning steps and data collection. First, the TSβ reaction was performed as above in microfuge tubes. […] The plate was covered by a mylar sheet (to protect the plate reader and avoid evaporation) and absorbance was monitored on the plate reader at 535 nm. […]
TS was partially purified from spinach for use in the TSβ assay. The greatest degree of purification was achieved by homogenizing the tissue, preparing the 30-50% ammonium sulfate fraction and freezing it, thawing it, and applying the dissolved precipitate to an FPLC column (Waters SW300, Waters Corporation, Franklin, Mass.) to separate the TS activity (measured as TSβ) from the bulk of the protein. […] Because of the low yield of the assay of partially purified plant TS, endogenous enzyme was measured in crude extracts or in enzyme preparations involving one or two purification steps. […]

Read-outs that look alike come from different tables or passages of the source. Marks after values point to notes of the source that are not given here.

T1 sequence (P00929 whole entry): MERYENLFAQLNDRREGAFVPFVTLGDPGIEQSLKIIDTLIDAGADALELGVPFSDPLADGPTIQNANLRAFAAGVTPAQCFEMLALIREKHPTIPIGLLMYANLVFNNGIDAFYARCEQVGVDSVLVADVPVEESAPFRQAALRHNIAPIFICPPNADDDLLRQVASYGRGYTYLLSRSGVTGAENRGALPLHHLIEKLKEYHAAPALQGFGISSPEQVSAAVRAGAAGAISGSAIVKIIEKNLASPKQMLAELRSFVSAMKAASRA
T1 sequence (P0A2K1 2-397, further chain): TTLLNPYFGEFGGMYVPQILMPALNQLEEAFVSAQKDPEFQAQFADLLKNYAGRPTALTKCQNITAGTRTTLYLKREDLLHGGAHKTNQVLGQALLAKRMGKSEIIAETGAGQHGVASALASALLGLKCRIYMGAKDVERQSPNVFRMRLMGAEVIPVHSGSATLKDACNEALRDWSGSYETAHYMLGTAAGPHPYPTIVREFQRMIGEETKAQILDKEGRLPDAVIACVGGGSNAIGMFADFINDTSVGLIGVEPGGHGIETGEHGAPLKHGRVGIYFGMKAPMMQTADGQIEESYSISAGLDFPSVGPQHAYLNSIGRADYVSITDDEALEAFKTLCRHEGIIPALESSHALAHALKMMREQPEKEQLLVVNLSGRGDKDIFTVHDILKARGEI

For orientation: Ki means a dissociation constant, usually derived from enzyme kinetics or from competition with a known ligand. For the molecule `O=P(O)(O)OCCCc1c[nH]c2ccccc12` [Compound 1, indole-3-propanol phosphate, reference compound], on TSα subunit, the Ki was 15000 nM. Besides, the IC50 in assay [1] (I50 TS, TSα reaction of the highly purified Salmonella typhimiurium holoenzyme) was 5000 nM; in assay [1] (I50 for IPP used as a standard in all tests, TSα reaction, 100 μM IGP), 1000 to 2000 nM; in assay [1] (TS inhibition I50, TSα reaction, Salmonella holoenzyme, 30 min at 37° C., 100 μM IGP) it was 2000 nM. Besides, the “TSα activity, % of control” value at Arabidopsis TS enzyme is recorded as 35.9 % of control. Also, at Arabidopsis TS enzyme, the “TSα activity, relative Vmax” value is reported as 2.223 mOD/min. Also, in assay [2], the Herbicidal Activity result is “inactive”.

In assay [1] (TSα activity (Salmonella enzyme) I50), `Cc1ccc(SCCCCP(=O)(O)O)c(N)c1` [Phosphonic acid,-{4-[(2-amino-p-tolyl)thio]butyl}-] returned an IC50 of 1000 nM. The “TSβ (Spinacea enzyme), relative activity” value in the assay with TSβ (Spinacea enzyme) is “+++++++*”.

On to “Phosphonic acid, {4-[(o-aminophenyl)thio]butyl}-, compound with cyclohexylamine (1:2)”, for which the IC50 was determined as 400 nM in assay [1] (TSα reaction, Salmonella holoenzyme, 30 min at 37° C., 100 μM IGP, read-out: TS inhibition I50) and 550 nM in assay [1] (read-out: TSα activity (Salmonella enzyme) I50). In the assay on TSβ (Spinacea enzyme), the “TSβ (Spinacea enzyme), relative activity” value is reported as “+++++”.
